Values quoted from earlier work as cited in patent US6331660A, “Maize DIMBOA biosynthesis genes” (Dekalb Genetics Corporation, priority 1998, dated 2001).

Biological target: T1, native E. coli α2β2 complex of tryptophan synthase α (TSA) and tryptophan synthase β (TSB) (Escherichia coli, UniProt P0A877)
T1 construct: by the native E. coli α2β2 complex
Conditions: conversion of indole-3-glycerol phosphate to indole, Weischet et al., 1976

T1 sequence (P0A879 2-397): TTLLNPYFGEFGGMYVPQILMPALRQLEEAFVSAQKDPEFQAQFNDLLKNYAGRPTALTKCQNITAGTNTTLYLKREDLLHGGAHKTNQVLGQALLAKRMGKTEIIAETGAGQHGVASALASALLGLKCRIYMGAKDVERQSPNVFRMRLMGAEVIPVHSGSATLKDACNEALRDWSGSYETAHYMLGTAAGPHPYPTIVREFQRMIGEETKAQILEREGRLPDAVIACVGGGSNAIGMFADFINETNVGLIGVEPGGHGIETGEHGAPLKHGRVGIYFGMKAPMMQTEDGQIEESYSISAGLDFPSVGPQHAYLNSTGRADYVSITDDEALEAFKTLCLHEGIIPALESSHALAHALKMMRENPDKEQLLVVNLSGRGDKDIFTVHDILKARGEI
T1 sequence (P0A877 whole entry): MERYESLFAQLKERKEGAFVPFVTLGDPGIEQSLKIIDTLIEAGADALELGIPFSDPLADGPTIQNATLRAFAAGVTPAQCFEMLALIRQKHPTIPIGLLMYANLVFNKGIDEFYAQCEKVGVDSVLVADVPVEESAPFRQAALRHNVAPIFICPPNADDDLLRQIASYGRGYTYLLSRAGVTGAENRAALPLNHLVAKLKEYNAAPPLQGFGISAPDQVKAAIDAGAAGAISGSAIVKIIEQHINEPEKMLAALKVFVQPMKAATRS

O=P(O)(O)OCC(O)C(O)c1c[nH]c2ccccc12 (centres unmarked) [indole-3-glycerol phosphate]
kcat: 0.2 s⁻¹ | Km (read-out: Km^indole-3-glycerol phosphate): 27 µM
